Test results published in patent US10517889B2, “Modulators of SMAD7 expression” (Ionis Pharmaceuticals, Inc., priority 2017, dated 2019).
Strand notation (5' to 3'): a small letter for the sugar, then the base; units joined by * are phosphorothioate-linked, units joined directly phosphodiester-linked; [ ] holds rarer units or linkages, { } end groups; capitals alone tell only the bases. k = constrained ethyl (cEt); [5mC] = 5-methylcytosine; d = 2'-deoxy (DNA)

Tested on: human SMAD7 mRNA
Assay: Antisense inhibition of human SMAD7 mRNA expression in Hep3B cells by 3-10-3 cEt gapmers, 10,000 nM, electroporation (Example 2)
Format: cell-based
Conditions: Hep3B cells, 10,000 nM antisense oligonucleotide, electroporation, approximately 24 hours, RT-PCR primer probe set RTS5062, relative to untreated control cells
Outline: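 Hep3B cells (20,000/well) were electroporated with 10,000 nM 3-10-3 cEt gapmer (16-mer, phosphorothioate, 5-methylcytosines) and harvested after about 24 h. SMAD7 mRNA quantified by RT-qPCR with primer probe set RTS5062, normalized to total RNA by RiboGreen; percent inhibition relative to untreated cells.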

Substance	% Inhibition [%]
798857 (kT*kG*k[5mC]*dT*dG*d[5mC]*dG*dG*dT*dT*dG*dT*dA*k[5mC]*kA*k[5mC]; antisense) [compound 798857]	11
799893 (antisense kA*kT*kA*d[5mC]*dA*dA*dA*d[5mC]*d[5mC]*dA*d[5mC]*dT*dG*k[5mC]*kA*kT) [compound 799893]	0
800057 (antisense kT*kT*k[5mC]*dA*d[5mC]*dT*dT*dG*dT*dT*dT*d[5mC]*dT*kG*k[5mC]*kA) [compound 800057]	46
772628 (kG*k[5mC]*k[5mC]*dT*dT*dG*dA*dT*dG*dG*dA*dG*dA*kA*kA*k[5mC]; antisense) [compound 772628]	33
799837 (antisense kT*k[5mC]*kA*dT*dA*dA*dG*d[5mC]*dA*dT*dA*dG*dA*kT*kT*kT) [compound 799837]	38
798897 (kG*kG*k[5mC]*dG*dG*dG*dT*dG*dT*dA*dG*d[5mC]*dA*k[5mC]*kT*kG; antisense) [compound 798897]	60
800016 (kG*kT*kT*d[5mC]*dA*dT*dT*dT*dT*dA*dA*dA*dG*k[5mC]*kA*kT; antisense) [compound 800016]	32

Same assay, conditions: Hep3B cells, electroporation with 10,000 nM antisense oligonucleotide, approximately 24 hours, RTS5062, percent inhibition of SMAD7 mRNA relative to untreated control cells

Substance	% Inhibition [%]
799526 (kA*kA*kG*dG*dA*dG*dG*dT*dT*dT*dG*dG*dG*kT*kT*kG; antisense) [compound 799526]	12
799648 (antisense kA*kT*kG*dA*dA*dA*dG*d[5mC]*d[5mC]*d[5mC]*d[5mC]*d[5mC]*dA*kG*kA*k[5mC]) [compound 799648]	9
799551 (kT*kT*kA*d[5mC]*dA*dG*d[5mC]*dT*d[5mC]*d[5mC]*dT*dA*d[5mC]*kT*kG*kT; antisense) [compound 799551]	12
799630 (k[5mC]*k[5mC]*k[5mC]*dT*dA*dT*d[5mC]*d[5mC]*d[5mC]*dA*dG*dA*dG*k[5mC]*k[5mC]*kT; antisense) [compound 799630]	43
799313 (antisense kA*kT*k[5mC]*d[5mC]*dA*dT*d[5mC]*dT*dT*dT*dA*dA*dG*k[5mC]*kA*k[5mC]) [compound 799313]	0
799801 (kA*kA*kT*d[5mC]*dA*dA*dG*dT*d[5mC]*d[5mC]*dT*d[5mC]*dT*kG*kG*kA; antisense) [compound 799801]	18
799767 (kT*k[5mC]*kT*dG*dT*dT*dT*dG*dG*dA*d[5mC]*dA*dA*kG*kT*kT; antisense) [compound 799767]	47
799548 (k[5mC]*kT*k[5mC]*d[5mC]*dT*dA*d[5mC]*dT*dG*dT*dT*dG*dG*k[5mC]*kA*kG; antisense) [compound 799548]	39

Same assay, conditions: Hep3B cells, electroporation with 10,000 nM antisense oligonucleotide, approximately 24 hours, SMAD7 mRNA by RT-PCR (RTS5062), relative to untreated control cells

Substance	% Inhibition [%]
799882 (kT*kT*kT*dG*dA*dA*d[5mC]*dA*dT*dT*dT*dA*d[5mC]*kT*kG*k[5mC]; antisense) [compound 799882]	41
798919 (kT*kG*k[5mC]*dT*d[5mC]*dA*dG*d[5mC]*dT*d[5mC]*dA*d[5mC]*dG*k[5mC]*kT*k[5mC]; antisense) [compound 798919]	45
798884 (k[5mC]*kG*kG*dT*dA*dA*dA*dG*d[5mC]*d[5mC]*d[5mC]*dG*dT*k[5mC]*k[5mC]*kA; antisense) [compound 798884]	15
799867 (k[5mC]*kT*k[5mC]*d[5mC]*dA*dA*dT*d[5mC]*dT*dG*dG*d[5mC]*dT*kG*kG*kT; antisense) [compound 799867]	24
798812 (k[5mC]*kT*k[5mC]*d[5mC]*dA*dG*dA*dA*dG*dA*dA*dG*dT*kT*kG*kG; antisense) [compound 798812]	0
800108 (antisense kG*kG*kA*dA*dT*d[5mC]*dT*dA*dG*dA*dA*dA*dA*k[5mC]*kA*k[5mC]) [compound 800108]	12
830133 (antisense kA*k[5mC]*kA*dA*dT*d[5mC]*dT*d[5mC]*d[5mC]*dT*dG*dG*dA*kA*kG*k[5mC]) [compound 830133]	26
799866 (k[5mC]*kA*k[5mC]*d[5mC]*dG*d[5mC]*dG*d[5mC]*dA*dG*dG*dG*dA*k[5mC]*kA*kG; antisense) [compound 799866]	0
798715 (antisense kG*k[5mC]*k[5mC]*d[5mC]*dG*dG*dG*d[5mC]*d[5mC]*dG*d[5mC]*d[5mC]*dG*k[5mC]*k[5mC]*kA) [compound 798715]	0
799491 (antisense kG*kG*k[5mC]*dA*dG*dG*d[5mC]*dA*dG*dG*dA*dA*dA*kT*kG*kG) [compound 799491]	38
830088 (kG*kT*kT*dT*dT*dA*d[5mC]*dA*dG*dG*dA*dT*dA*k[5mC]*kA*k[5mC]; antisense) [compound 830088]	52
799395 (antisense kT*kT*kA*d[5mC]*dA*dA*dA*dT*dA*d[5mC]*dA*dG*dA*kG*kA*kG) [compound 799395]	62
799348 (kA*kT*kA*dA*dA*dA*dG*dG*dA*dA*dA*dG*dG*kA*kG*kT; antisense) [compound 799348]	21
799433 (antisense kT*kT*k[5mC]*dT*dT*dG*dT*dG*dG*dG*dA*dT*dG*kT*kG*kG) [compound 799433]	56

Same assay, conditions: Hep3B cells, electroporation with 10,000 nM antisense oligonucleotide, approximately 24 hours, primer probe set RTS5062, relative to untreated control cells

Substance	% inhibition of SMAD7 mRNA expression [%]	% Inhibition [%]
798952 (antisense kT*kA*kT*dT*dT*d[5mC]*dT*d[5mC]*dA*dA*dA*dG*dA*kG*k[5mC]*kG) [compound 798952]	61	
799209 (kT*kA*kA*dT*dG*dA*dT*dG*d[5mC]*dT*dT*dA*dT*kA*kA*kA; antisense) [compound 799209]		14
798763 (kG*kA*kG*dT*dA*dG*dG*dA*d[5mC]*dG*dA*dG*dG*kG*k[5mC]*kG; antisense) [compound 798763]	53	
798709 (antisense kT*kG*k[5mC]*dG*d[5mC]*dT*d[5mC]*dG*dG*d[5mC]*dT*dG*dT*k[5mC]*k[5mC]*kG) [compound 798709]	2	
799398 (antisense k[5mC]*kT*kT*dG*dG*dA*dA*dA*dA*dT*dG*dA*dA*k[5mC]*kT*kT) [compound 799398]	48	
799342 (k[5mC]*kT*kT*dA*dT*d[5mC]*dT*dG*dT*dG*d[5mC]*dG*dG*kA*kA*kG; antisense) [compound 799342]	44	
799386 (antisense kA*kG*kG*dA*dG*d[5mC]*dT*dA*dA*dA*dT*dG*dG*kT*kG*k[5mC]) [compound 799386]	12	
799172 (antisense kA*kA*k[5mC]*dA*dT*dG*d[5mC]*dT*d[5mC]*dA*dT*dT*dG*kA*kG*k[5mC]) [compound 799172]	4	

Same assay, conditions: Hep3B cells, electroporation, 10,000 nM antisense oligonucleotide, approximately 24 hours, RTS5062, relative to untreated control cells

Substance	% inhibition of SMAD7 mRNA expression [%]
799798 (kT*k[5mC]*k[5mC]*d[5mC]*dA*d[5mC]*dT*dT*d[5mC]*dT*d[5mC]*d[5mC]*dT*k[5mC]*kT*kG; antisense) [compound 799798]	50
799638 (kA*kG*kT*d[5mC]*dA*dG*dG*d[5mC]*dA*d[5mC]*dA*dG*dA*k[5mC]*kT*kG; antisense) [compound 799638]	53
799639 (k[5mC]*k[5mC]*kA*dG*dA*dG*dA*dG*dT*d[5mC]*dA*dG*dG*k[5mC]*kA*k[5mC]; antisense) [compound 799639]	34
799756 (antisense k[5mC]*kA*kG*dG*dG*d[5mC]*dA*dG*d[5mC]*dT*d[5mC]*d[5mC]*dG*kA*kG*kA) [compound 799756]	44

Same assay, conditions: Hep3B cells, electroporation, 10,000 nM, approximately 24 hours; 3-10-3 cEt gapmers targeting SEQ ID NO: 3 and 4

Substance	% inhibition of SMAD7 mRNA expression [%]
799240 (kA*kT*k[5mC]*dT*dG*dG*dA*d[5mC]*dA*dG*dT*d[5mC]*dA*kG*kT*kT; antisense) [compound 799240]	45
799268 (antisense kT*k[5mC]*k[5mC]*dA*dG*dT*dT*d[5mC]*dG*dG*d[5mC]*d[5mC]*dT*kT*k[5mC]*k[5mC]) [compound 799268]	24

Same assay, conditions: SMAD7 mRNA, Hep3B cells, 10,000 nM antisense oligonucleotide, electroporation, approximately 24 hours, primer probe set RTS5062, relative to untreated control cells

Substance	% Inhibition [%]
790652 (k[5mC]*kA*k[5mC]*d[5mC]*dA*dG*dT*dT*dG*dG*dT*dT*dT*kG*kA*kG; antisense) [compound 790652]	25
790486 (kT*kG*k[5mC]*d[5mC]*dT*dG*dA*dG*dA*dT*d[5mC]*d[5mC]*dG*kG*k[5mC]*k[5mC]; antisense) [compound 790486]	23
772595 (kA*k[5mC]*k[5mC]*dA*d[5mC]*dG*d[5mC]*dA*d[5mC]*d[5mC]*dA*dG*dT*kG*kT*kG; antisense) [compound 772595]	2
829766 (antisense k[5mC]*kT*kG*d[5mC]*d[5mC]*dG*d[5mC]*dT*d[5mC]*d[5mC]*dT*dT*d[5mC]*kA*kG*kT) [compound 829766]	32

Same assay, conditions: SMAD7 mRNA, Hep3B cells, electroporation with 10,000 nM antisense oligonucleotide, approximately 24 hours, primer probe set RTS5062, relative to untreated control cells

Substance	% Inhibition [%]
829945 (kG*k[5mC]*k[5mC]*dA*dG*dT*dT*dA*dA*dT*d[5mC]*dA*dT*kT*kA*k[5mC]; antisense) [compound 829945]	31
829924 (k[5mC]*kT*k[5mC]*dA*dT*dT*dG*dA*dG*d[5mC]*dT*dA*dA*kG*kA*kA; antisense) [compound 829924]	25
829811 (kT*k[5mC]*k[5mC]*dA*dT*d[5mC]*dG*dG*dG*dT*dA*dT*d[5mC]*kT*kG*kG; antisense) [compound 829811]	0
